Data as given in US11958842B2, “Substituted phenazines and methods of treating cancer and bacterial diseases” (Adjutec Pharma AS, priority 2016, dated 2024).
Where two headings read alike, the source gives them in different places. Marks after values point to notes of the source that are not given here.

How the values were obtained:
[1] = Parallel artificial membrane permeability assay (PAMPA); conditions: for Permeability: PAMPA class by ranges of Bennion et al.; for LogPeff: PAMPA
Protocol: The Corning Gentest™ pre-Coated parallel artificial membrane permeability assay PAMPA Plate System was from Cording Discovery Labware (Bedford, USA). The compounds were tested in room temperature at 50 μM using PBS as buffer. A total of 300 μl of the compound solution was added to each well of the donor plate, and 200 μl of PBS was added to the receiver filter plate. After incubation for five hours, 50 μl of the donor or acceptor well were injected into a reversed phase HPLC column (Kromasil 100-5 C18 150-4.6 mm, Akzo Nobel, Sweden) connected to a Merck-Hitachi LaChrome HPLC-system (VWR, WestChester, USA) with a L-7455 diode array detector. Mobile phase A was 0.05% aqueous TFA, and mobile phase B was acetonitrile. The flow rate was 1.6 ml/min and compounds eluted between 1 and 4.5 minutes was eluted during a 6.5 min gradient from 90:10% mobile phase A:B to 0:100% mobile phase A:B. The ratio of the compound concentrations in the donor and acceptor compartment was calculated after integration of the peaks at 285 nm. Peff was calculated as described in [Bennion B J, Be N A, McNerney M W, Lao V, Carlson E M, Valdez C A, et al. Predicting a Drug's Membrane Permeability: A Computational Model Validated With in Vitro Permeability Assay Data. The journal of physical chemistry B. 2017; 121(20):5228-37.]. Membrane permeability were classified by the range defined by Bennion et al., allowing for us to divide the compounds into four groups, compounds with high permeability (LogPeff>−5.33), intermediate permeability (LogPeff>−5.66 and <−5.33), low permeability (LogPeff>−6.14 and <−5.66) impermeable (LogPeff<−6.14).

[2] = system: human acute myeloid leukemia cell line MOLM-13; assay: Cytotoxicity, WST-1 and nuclear morphology (Example 73); format: cell-based
Protocol: (§1) All cell culturing media and serum were from Sigma-Aldrich (St. Louis, Mo., USA). Product Nos. are given in parentheses. The human acute myeloid leukemia cell line MOLM-13 was cultured in RPMI medium (R5886) enriched with […] (F7524) and 0.2 mM L-glutamine (G7513). The normal rat kidney epithelial (NRK) and the rat cardiomyoblast (H9c2) cells were cultured in DMEM medium (D6429) enriched with 10% fetal bovine serum (F7524). All cell lines were additionally supplemented with 100 IU/mL penicillin and […] (P0781). The cells were cultured in a humidified atmosphere either under 2% or 20% O2 at 37° C.
(§2) All analogues were dissolved in DMSO (D5879, Sigma-Aldrich) at concentrations between 2.5 and 20 mM before testing. For cytotoxic testing, the MOLM-13 cells were seeded as 20,000 cells/well, while NRK and H9c2 cells were seeded as 5,000 cells/well in 96-well Microplates (#167008, Thermo Scientific™ Nunc™ MicroWell™) with 100 μL medium/well. The cells were exposed to various concentrations of iodinin or its analogues for 24 hrs before the cell proliferation reagent WST-1 was used to assess the viability, in accordance with the manufacturer's instructions (11644807001, Roche Diagnostics, Sigma-Aldrich). The cells were next fixed in 2% buffered formaldehyde (pH 7.4) with the DNA-specific dye Hoechst 33342 (Polysciences Inc.) and assessed for cell death by UV-microscopy based on nuclear morphology. The highest concentration of analogue corresponded to 1% of DMSO, which alone gave less than 7% cell death as judged by nuclear morphology.
(§3) EC50 values were determined by analyses of WST-1 signal results as well as microscopic evaluation of cell death by four-parameter regression analyses using the SigmaPlot software (Systat Software inc. San Jose, Calif.):
(§4) [formula] where Y is the response (WST-1 signal or percent apoptosis), min and max are minimum and maximum response, X is concentration of analogue, EC50 equals the point of inflection, i.e. the point that gives half of maximum response, and h is the Hill's slope of the curve. The two methods gave consistent response curves for each analogue. In the case of Tirapazamine, where its colour interfered with the WST-1 signal, only microscopic evaluation of Hoechst stained cells was used in order to calculate its EC50 values.

Molm13 cells = assay: Anti-AML activity, WST-1 viability (Example 72); format: cell-based; conditions: Homo sapiens
Protocol: Dry powder of analogs were dissolved in DMSO. IPC-18 rat AML cells (Lacaze, N. et al. Leuk. Res. 1983, 7, 145.) were cultured in DMEM medium (Sigma-Aldrich, St. Louis, Mo., USA) supplemented with 10% horse serum (Invitrogen, Carlsbad, Calif., USA), and antibiotics (50 U/mL of penicillin and 0.05 mg/mL streptomycin). Molm13 (Matsuo, Y. et al. Leukemia 1997, 11, 1469.) cells were cultured in RPMI supplemented with antibiotics (50 U/mL of penicillin and 0.05 mg/mL streptomycin) and 10% fetal bovine serum (FBS, Invitrogen, Carlsbad, Calif.) and kept in exponential growth before the experiments. Dilution series of iodinin analogs were added to medium and cell suspension added to reach a final cell concentration of 150 000 cells/ml in 0.1 mL in a 96 well tissue culture plate. […] The cells were incubated with the iodinin analogs for 22 h before WST-1 was added according to the manufacturers protocol, and the cells incubated further in 2 h. Mitochondrial conversion of WST-1 to its colored metabolite was measured by a plate reader at 450 nm, with 620 nm as the reference wavelength. The cells were next fixed by adding 4% buffered formaldehyde (PBS, pH 7.4, supplemented with 0.01 mg/mL Hoechst 33342 for nuclear visualization) to the cell suspension at 1:1 (v/v) ratio (final concentration of formaldehyde:[…]). The cells' nuclear and surface morphology were examined microscopically and results compared with the WST-1 viability assay. The results given in Table I are based on WST-1 data.

[3] = system: rat cardiomyoblast (H9c2) cells; assay: Cytotoxicity, WST-1 and nuclear morphology (Example 73); format: cell-based; conditions: H9c2, 19% O2, 24 hours of incubation, read-out: EC50 (μM) H9c2 19% O2
Protocol: as §1, §2, §3, §4

[4] = system: normal rat kidney epithelial (NRK) cells; assay: as above; format: cell-based
Protocol: as §1, §2, §3, §4

hepG2 = assay: Cytotoxicity (Example 73, Table 2); format: cell-based; conditions: Homo sapiens, HepG2, 24 h, read-out: EC50 (μM) hepG2
[5] = 50 μM in PBS, room temperature, five hours
[6] = Homo sapiens, MOLM-13, 2% O2, 24 hours of incubation, read-out: EC50 (μM) MOLM-13 2% O2
[7] = Homo sapiens, MOLM-13, 19% O2, 24 hours of incubation, read-out: EC50 (μM) MOLM-13 19% O2
[8] = Molm 13 cells, 2% O2, 24 h of incubation, WST-1, read-out: Molm 13 IC50 2% O2
[9] = Molm 13 cells, 20% O2, 24 h of incubation, WST-1, read-out: Molm 13 IC50 20% O2
[10] = Rattus norvegicus, 2% O2, 24 hours of incubation, read-out: EC50 (μM) NRK 2% O2
[11] = Rattus norvegicus, 19% O2, 24 hours of incubation, read-out: EC50 (μM) NRK 19% O2
[12] = Rattus norvegicus, 24 h, read-out: EC50 (μM) NRK 2% O2, NRK, 2% O2, 24 hours of incubation
[13] = Rattus norvegicus, 24 h, read-out: EC50 (μM) NRK 19% O2, NRK, 19% O2, 24 hours of incubation
[14] = MOLM-13, 2% O2, 24 hours of incubation, read-out: EC50 (μM) MOLM-13 2% O2
[15] = MOLM-13, 19% O2, 24 hours of incubation, read-out: EC50 (μM) MOLM-13 19% O2

| Structure (SMILES) | LogPeff [1, 5] | EC50 [2, 6] | EC50 [2, 7] | IC50 (Molm13 cells; [9]) | EC50 ([3]; Rattus norvegicus) | EC50 [3] | EC50 [4, 12] | EC50 [2, 14] | EC50 [2, 15] | further results |
| --- | --- | --- | --- | --- | --- | --- | --- | --- | --- | --- |
| Oc1cccc2nc3c(O)cccc3nc12 [Example 1b, 1,6-dihydroxyphenazine] | −5.42 | 110 to 140 µM | 100 to 120 µM | – | – | – | – | – | – | Permeability [1]: Intermediate/high |
| CCOC(=O)COc1cccc2c1[n+]([O-])c1cccc(O)c1[n+]2[O-] [Example 5c, 1-(2-(ethoxy)-2-oxoethoxy)-6-hydroxyphenazine 5,10-dioxide] | −4.70 | 0.49 ± 0.12 µM | 0.57 ± 0.06 µM | 0.85 µM | 15 ± 0.9 µM | – | – | – | – | IC50 (Molm13 cells; [8]): 0.65 µM; EC50 [4, 10]: 18 ± 1.5 µM; EC50 [4, 11]: 11 ± 1.6 µM |
| O=C(O)COc1cccc2c1[n+]([O-])c1cccc(O)c1[n+]2[O-] [Example 7, 1-(carboxymethoxy)-6-hydroxyphenazine 5,10-dioxide] | −7.53 | 61 ± 4 µM | 54 ± 7 µM | – | – | – | – | – | – | – |
| CN1CCN(C(=O)Oc2cccc3c2[n+]([O-])c2cccc(O)c2[n+]3[O-])CC1 [Example 8a, 1-hydroxy-6-((4-methylpiperazine-1-carbonyl)oxy)phenazine 5,10-dioxide] | – | – | – | – | – | 100 ± 13 µM | 59 ± 1.1 µM | 1.4 ± 0.06 µM | 1.5 ± 0.16 µM | EC50 (hepG2): 30 µM; EC50 [4, 13]: 53 ± 2 µM |
| Cc1cc2c(cc1C)[n+]([O-])c1c(OC(=O)N3CCN(C)CC3)cccc1[n+]2[O-] [Example 8d, 7,8-dimethyl-1-((4-methylpiperazine-1-carbonyl)oxy)phenazine 5,10-dioxide] | – | – | – | – | – | 9.4 ± 0.55 µM | 13 ± 0.7 µM | 0.54 ± 0.06 µM | 0.63 ± 0.05 µM | EC50 (hepG2): 105 µM; EC50 [4, 13]: 11 ± 1.5 µM |
| CN(C)C(=O)Oc1cccc2c1[n+]([O-])c1ccccc1[n+]2[O-] [Example 8k, 1-((dimethylcarbamoyl)oxy)phenazine 5,10-dioxide] | – | – | – | – | – | 16 ± 2.6 µM | 25 ± 0.6 µM | 2.1 ± 0.16 µM | 1.3 ± 0.15 µM | IC50 (Molm13 cells; MOLM-13, 24 h, read-out: Molm 13 IC50 20% O2): 0.32 µM; EC50 [4, 13]: 19 ± 1.3 µM |
| CCCCC(=O)Oc1cccc2c1[n+]([O-])c1cccc(OC(=O)CCCC)c1[n+]2[O-] [Example 16b, 1,6-bis(pentanoyloxy)phenazine 5,10-dioxide] | −8.66 | 22 ± 2.8 µM | 36 ± 0.1 µM | ~40 µM | > 200 µM | – | – | – | – | – |
| CCOC(=O)COc1cccc2c1[n+]([O-])c1cccc(OCC(=O)OCC)c1[n+]2[O-] [Example 16c, 1,6-bis(2-ethoxy-2-oxoethoxy)phenazine 5,10-dioxide] | – | 0.79 ± 0.06 µM | 2 ± 0.47 µM | 4.11 µM | > 20 µM | – | – | – | – | IC50 (Molm13 cells; [8]): 3.98 µM; EC50 [4, 10]: > 20 µM; EC50 [4, 11]: > 20 µM |
| CC(C)(C)C(=O)Oc1cccc2c1[n+]([O-])c1cccc(OC(=O)C(C)(C)C)c1[n+]2[O-] [Example 16d, 1,6-bis(pivaloyloxy)phenazine 5,10-dioxide] | −5.86* | 8.9 ± 1.71 µM | 11 ± 0.7 µM | 4.05 µM | > 50 µM | – | – | – | – | IC50 (Molm13 cells; [8]): 5.59 µM |
| CCOC(=O)Oc1cccc2c1[n+]([O-])c1cccc(OC(=O)OCC)c1[n+]2[O-] [Example 16e, 1,6-bis((ethoxycarbonyl)oxy)phenazine 5,10-dioxide] | – | 4 ± 0.33 µM | 6.1 ± 0.05 µM | 2.23 µM | > 25 µM | – | – | – | – | IC50 (Molm13 cells; [8]): 3.5 µM; EC50 [4, 10]: > 25 µM; EC50 [4, 11]: > 25 µM |
| CCN(CC)C(=O)COc1cccc2c1[n+]([O-])c1cc(C)c(C)cc1[n+]2[O-] [Example 50, 1-(2-(diethylamino)-2-oxoethoxy)-7,8-dimethylphenazine 5,10-dioxide] | −5.42 | 3.4 ± 0.78 µM | 1.8 ± 0.24 µM | – | 41 ± 5.7 µM | – | – | – | – | Permeability [1]: Intermediate/high; EC50 [4, 10]: 52 ± 1.2 µM; EC50 [4, 11]: 21 ± 0.3 µM |
| Cc1cc2c(cc1C)[n+]([O-])c1c(OC(=O)N3CCCC3)cccc1[n+]2[O-] [Example 52, 7,8-dimethyl-1-((pyrrolidine-1-carbonyl)oxy)phenazine 5,10-dioxide] | −5.32 | – | – | – | – | 8.7 ± 1.2 µM | 8.9 µM | 0.78 ± 0.11 µM | 1.5 ± 0.02 µM | EC50 [4, 13]: 6.6 ± 0.04 µM |
| [O-][n+]1c2cc3ccccc3cc2[n+]([O-])c2c(O)cccc21 [Example 70, 1-hydroxybenzo[b]phenazine 5,12-dioxide] | −8.04 | – | – | – | – | – | – | – | – | – |
| CN1CCN(C(=O)Oc2cccc3c2[n+]([O-])c2cc4ccccc4cc2[n+]3[O-])CC1 [Example 71, 1-((4-methylpiperazine-1-carbonyl)oxy)benzo[b]phenazine 5,12-dioxide] | −5.43 | – | – | – | – | 2.3 ± 0.05 µM | 7.5 ± 0.38 µM | 1.8 ± 0.1 µM | 2.8 ± 0.18 µM | Permeability [1]: Intermediate/high; EC50 ([4]; read-out: EC50 (μM) NRK 19% O2, 19% O2, 24 hours of incubation): 2 ± 0.06 µM |
| Nc1n[n+]([O-])c2ccccc2[n+]1[O-] [Tirapazamine, reference compound] | – | – | – | – | – | – | – | – | – | LogPeff ([1]; 5 h, 50 μM): −5.79 |
